Measurements from US12157730B2, “Heteroaryl derivative, method for producing same, and pharmaceutical composition comprising same as effective component” (VORONOI INC., priority 2019, dated 2024).

Target: T1, Ba/F3 cell EGFR Exon20 ins NPH (Homo sapiens, UniProt P00533, INS773NPH)
T1 construct: expressed in transfected cells; host or cells: Ba/F3
Experiment: Ba/F3 cell proliferation suppression, EGFR Exon20 ins NPH
Format: cell-based
Conditions: GI50 class; Ba/F3 cell line with NPH inserted at Exon20 of EGFR; 72 hours
How it was run: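 After 72 h compound exposure (twelve 3-fold steps, 0.3 nM–50 um final), live cells were measured by CellTiter-Glo luminescence and growth expressed as % of control to derive GI50. Cells were seeded at 3000–5000 per well a day earlier; Ba/F3 medium contained IL-3; three repeats.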

| Compound | Ba/F3 (NPH) Activity |
| --- | --- |
| C=CC(=O)Nc1cc(Nc2cc(N3OCC[C@@H]3c3ccc4ccccc4c3)ncn2)c(OC)cc1N1CCC(N2CCOCC2)CC1 [compound 555, N-(4-methoxy-2-(4-morpholinopiperidine-1-yl)-5-((6-((R)-3-(naphthalene-2-yl)isoxazolidine-2-yl)pyrimidine-4-yl)amino)phenyl)acrylamide] | B (50 nM ≤ GI50 < 500 nM) |
| C=CC(=O)Nc1cc(Nc2cc(N3OCC[C@H]3c3c(F)ccc(F)c3F)ncn2)c(OC)cc1N1CCC(N2CCN(C3CC3)CC2)CC1 [compound 937, N-(2-(4-(4-cyclopropylpiperazine-1-yl)piperidine-1-yl)-4-methoxy-5-((6-((S)-3-(2,3,6-trifluorophenyl)isoxazolidine-2-yl)pyrimidine-4-yl)amino)phenyl)acrylamide] | B (50 nM ≤ GI50 < 500 nM) |
| C=CC(=O)Nc1cc(Nc2cc(N3OCC[C@@H]3c3ccc(Cl)cc3)ncn2)c(OC)cc1N1CCC(N2CCOCC2)CC1 [compound 782, N-(5-((6-((R)-3-(4-chlorophenyl)isoxazolidine-2-yl)pyrimidine-4-yl)amino)-4-methoxy-2-(4-morpholinopiperidine-1-yl)phenyl)acrylamide] | A (GI50 < 50 nM) |
| C=CC(=O)Nc1cc(Nc2cc(N3OCC[C@@H]3c3ccc(F)c(Cl)c3)ncn2)c(OC)cc1N1CCC(N2CCN(C3CC3)[C@@H](C)C2)CC1 [Example 177, N-(5-((6-((R)-3-(3-chloro-4-fluorophenyl)isoxazolidine-2-yl)pyrimidine-4-yl)amino)-2-(4-((S)-4-cyclopropyl-3-methylpiperazine-1-yl)piperidine-1-yl)-4-methoxyphenyl) acrylamide] | A (GI50 < 50 nM) |
| C=CC(=O)Nc1cc(Nc2cc(N3OCC[C@@H]3c3cccc(F)c3F)ncn2)c(OC)cc1N1CCC(N2CCN(CC)CC2)CC1 [compound 922] | A (GI50 < 50 nM) |
| C=CC(=O)Nc1cc(Nc2cc(N3OCC[C@@H]3c3ccc(Cl)c(Cl)c3)ncn2)c(OC)cc1N1CCOCC1 [compound 615, N-(5-((6-((R)-3-(3,4-dichlorophenyl)isoxazolidine-2-yl)pyrimidine-4-yl)amino)-4-methoxy-2-morpholinophenyl) acrylamide] | A (GI50 < 50 nM) |
| C=CC(=O)Nc1cc(Nc2cc(N3OCC[C@@H]3c3ccc(F)c(F)c3F)ncn2)c(OC)cc1N1CC[C@H](N2CCOCC2)C1 [compound 624, N-(4-methoxy-2-((S)-3-morpholinopyrolidine-1-yl)-5-((6-((R)-3-(2,3,4-trifluorophenyl)isoxazolidine-2-yl)pyrimidine-4-yl)amino)phenyl)acrylamide] | C (500 nM ≤ GI50 < 5000 nM) |
| C=CCN1CCN(C2CCN(c3cc(OC)c(Nc4cc(N5OCC[C@@H]5Cc5cccc(Cl)c5Cl)ncn4)cc3NC(=O)C=C)CC2)CC1 [compound 1024, N-(2-(4-(4-allylpiperazine-1-yl)piperidine-1-yl)-5-((6-((S)-3-(2,3-dichlorobenzyl)isoxazolidine-2-yl)pyrimidine-4-yl)amino)-4-methoxyphenyl) acrylamide] | A (GI50 < 50 nM) |
| C=CC(=O)Nc1cc(Nc2cc(N3OCC[C@@H]3c3ccc(Cl)cc3)ncn2)c(OC)cc1N1CCC(N2C[C@H]3C[C@@H]2CO3)CC1 [compound 867, N-(2-(4-((1R,4R)-2-oxa-5-azabicyclo [2.2.1]heptane-5-yl)piperidine-1-yl)-5-((6-((R)-3-(4-chlorophenyl)isoxazolidine-2-yl)pyrimidine-4-yl)amino)-4-methoxyphenyl) acrylamide] | A (GI50 < 50 nM) |
| C=CC(=O)Nc1cc(Nc2cc(N3OCC[C@H]3c3c(F)cccc3F)ncn2)c(OC)cc1N1CCC(N2CC[C@H](N(C)C)C2)CC1 [compound 315, N-(5-((6-((S)-3-(2,6-difluorophenyl)isoxazolidine-2-yl)pyrimidine-4-yl)amino)-2-(4-((S)-3-(dimethylamino)pyrolidine-1-yl)piperidine-1-yl)-4-methoxyphenyl) acrylamide] | C (500 nM ≤ GI50 < 5000 nM) |
| C=CC(=O)Nc1cc(Nc2cc(N3OCC[C@@H]3Cc3cc(F)cc(F)c3)ncn2)c(OC)cc1N1CCC(N2C[C@H]3C[C@@H]2CO3)CC1 [compound 1034, N-(2-(4-((1R,4R)-2-oxa-5-azabicyclo [2.2.1]heptane-5-yl)piperidine-1-yl)-5-((6-((S)-3-(3,5-difluorobenzyl)isoxazolidine-2-yl)pyrimidine-4-yl)amino)-4-methoxyphenyl) acrylamide] | A (GI50 < 50 nM) |
| C=CC(=O)Nc1cc(Nc2cc(N3OCC[C@@H]3c3cccc(F)c3F)ncn2)c(OC)cc1N1CCC(N2CCOCC2)CC1 [compound 920, N-(5-((6-((R)-3-(2,3-difluorophenyl)isoxazolidine-2-yl)pyrimidine-4-yl)amino)-4-methoxy-2-(4-morpholinopiperidine-1-yl)phenyl)acrylamide] | A (GI50 < 50 nM) |
| C=CC(=O)Nc1cc(Nc2cc(N3OCC[C@@H]3c3cccc(F)c3Cl)ncn2)c(OC)cc1N1CCC(N2C[C@@H]3CCN(C)[C@@H]3C2)CC1 [compound 448, N-(5-((6-((R)-3-(2-chloro-3-fluorophenyl)isoxazolidine-2-yl)pyrimidine-4-yl)amino)-4-methoxy-2-(4-((3aS,6aS)-1-methylhexahydropyrrolo [3,4-b]pyrrole-5(1H)-yl)piperidine-1-yl)phenyl)acrylamide] | A (GI50 < 50 nM) |
| C=CC(=O)Nc1cc(Nc2cc(N3OCC[C@@H]3c3cc(F)cc(F)c3)ncn2)c(OC)cc1N1CCC(N2CCN(C3CC3)[C@@H](C)C2)CC1 [Example 110, N-(2-(4-((S)-4-cyclopropyl-3-methylpiperazine-1-yl)piperidine-1-yl)-5-((6-((R)-3-(3,5-difluorophenyl)isoxazolidine-2-yl)pyrimidine-4-yl)amino)-4-methoxyphenyl) acrylamide] | A (GI50 < 50 nM) |
| C=CC(=O)Nc1cc(Nc2cc(N3OCC[C@@H]3c3cccc(Cl)c3Cl)ncn2)c(OC)cc1N1CCN(CC2CC2)CC1 [compound 567, N-(2-(4-(cyclopropylmethyl)piperazine-1-yl)-5-((6-((R)-3-(2,3-dichlorophenyl)isoxazolidine-2-yl)pyrimidine-4-yl)amino)-4-methoxyphenyl) acrylamide] | A (GI50 < 50 nM) |
| C=CC(=O)Nc1cc(Nc2cc(N3OCC[C@@H]3Cc3ccccc3)ncn2)c(OC)cc1N1C[C@H]2C[C@@H]1CN2CC [compound 949, N-(5-((6-((S)-3-benzylisoxazolidine-2-yl)pyrimidine-4-yl)amino)-2-((1R,4R)-5-ethyl-2,5-diazabicyclo [2.2.1]heptane-2-yl)-4-methoxyphenyl) acrylamide] | A (GI50 < 50 nM) |
| C=CC(=O)Nc1cc(Nc2cc(N3OCC[C@H]3Cc3ccccn3)ncn2)c(OC)cc1N1CCC(N2CCN(C3CC3)CC2)CC1 [compound 1058, N-(2-(4-(4-cyclopropylpiperazine-1-yl)piperidine-1-yl)-4-methoxy-5-((6-((R)-3-(pyridine-2-ylmethyl)isoxazolidine-2-yl)pyrimidine-4-yl)amino)phenyl)acrylamide] | C (500 nM ≤ GI50 < 5000 nM) |
| C=CC(=O)Nc1cc(Nc2cc(N3OCC[C@@H]3c3cccc4ccccc34)ncn2)c(OC)cc1N1CCC(N2CCN(C)CC2)CC1 [compound 482, N-(4-methoxy-2-(4-(4-methylpiperazine-1-yl)piperidine-1-yl)-5-((6-((R)-3-(naphthalene-1-yl)isoxazolidine-2-yl)pyrimidine-4-yl)amino)phenyl)acrylamide] | A (GI50 < 50 nM) |
| C=CC(=O)Nc1cc(Nc2cc(N3OCC[C@@H]3c3ccc(Cl)cc3F)ncn2)c(OC)cc1N1CCN(CC)CC1 [compound 401, N-(5-((6-((R)-3-(4-chloro-2-fluorophenyl)isoxazolidine-2-yl)pyrimidine-4-yl)amino)-2-(4-ethylpiperazine-1-yl)-4-methoxyphenyl) acrylamide] | A (GI50 < 50 nM) |
| C=CC(=O)Nc1cc(Nc2cc(N3OCC[C@@H]3c3cccc(Cl)c3)ncn2)c(OC)cc1N1CCC(N2CCN(C(C)C)CC2)CC1 [compound 461, N-(5-((6-((R)-3-(3-chlorophenyl)isoxazolidine-2-yl)pyrimidine-4-yl)amino)-2-(4-(4-isopropylpiperazine-1-yl)piperidine-1-yl)-4-methoxyphenyl) acrylamide] | A (GI50 < 50 nM) |
| C#Cc1cccc([C@H]2CCON2c2cc(Nc3cc(NC(=O)C=C)c(N4CCC(N5CCN(CC)CC5)CC4)cc3OC)ncn2)c1 [compound 652, N-(2-(4-(4-ethylpiperazine-1-yl)piperidine-1-yl)-5-((6-((R)-3-(3-ethynylphenyl)isoxazolidine-2-yl)pyrimidine-4-yl)amino)-4-methoxyphenyl) acrylamide] | B (50 nM ≤ GI50 < 500 nM) |
| C=CC(=O)Nc1cc(Nc2cc(N3OCC[C@@H]3c3cccc(C#N)c3)ncn2)c(OC)cc1N1CCC(N2CCN(C3CC3)C[C@@H]2C)CC1 [Example 132, N-(5-((6-((R)-3-(3-cyanophenyl)isoxazolidine-2-yl)pyrimidine-4-yl)amino)-2-(4-((S)-4-cyclopropyl-2-methylpiperazine-1-yl)piperidine-1-yl)-4-methoxyphenyl) acrylamide] | B (50 nM ≤ GI50 < 500 nM) |
| C=CC(=O)Nc1cc(Nc2cc(N3OCC[C@@H]3c3cccc(F)c3Cl)ncn2)c(OC)cc1N1CCC(N2CC3CCC(C2)N3C2CC2)CC1 [Example 142, N-(5-((6-((R)-3-(2-chloro-3-fluorophenyl)isoxazolidine-2-yl)pyrimidine-4-yl)amino)-2-(4-(8-cyclopropyl-3,8-diazabicyclo[3.2.1]octan-3-yl)piperidine-1-yl)-4-methoxyphenyl) acrylamide] | A (GI50 < 50 nM) |
